In patent US20100173956A1, “Use of Quaternary Pyridinium Salts as Vasoprotective Agents” (Pharmena Spolka Akcyjna (Pharmena S.A.), priority 2004, published 2010):
Entries after “also recorded” stand apart in the source; their conditions may differ.

How the values were obtained:
neutrophils = assay: Latex-induced activation of neutrophils; assay type: cell-based
[1] = system: 6-keto-PGF1α (stable PGI2 metabolite); assay: Assay of 6-keto-PGF1α in arterial blood plasma (enzyme immunoassay); assay type: in vivo, Wistar rats
Description: (§1) The analysis of the thrombolytic response in this experimental set-up was complemented by the assay of 6-keto-PGF1α, TXB2 and PGE2 in arterial blood plasma. For this purpose blood samples (500 μl) were collected in Eppendorff tubes with indomethacin to yield its final concentration of 10 μM, and EDTA to yield the final concentration of 1 mM. Then, the blood samples were spinned for 5 min at 2.000×g. Plasma samples were stored at −70° C. The prostanoids were assayed using the enzyme immunoassay kits (Cayman Chemical Co, Ann Arbor, Mich.).

platelet-rich thrombi = assay: Thrombolytic activity in rats with extracorporal circulation (method of Gryglewski); assay type: in vivo, Wistar rats; settings: for thrombolytic response: single injection, fall in weight of thrombi, maximum response
Description: Thrombolytic activity of quaternary pyridinium salts was assessed using original method of Gryglewski et al., (Gryglewski R J, Korbut R, Ocetkiewicz A, Stachura J. In vivo method for quantitation for anti-platelet potency of drugs. Naunyn Schmiedebergs Arch Pharmacol 1978; 302:25-30), the scheme of which was shown on FIG. 1.
(§2) Wistar rats of body weight 300-350 g were anaesthetised (thiopental 30 mg kg^−1 i.p.) and heparinised (unfractionated heparin. 800 i.u. kg^−1 i.v.). Arterial blood pressure was measured from cannulated right carotid artery, and extracorporal circulation was established between left carotid artery and left jugular vein. A collagen strip from rabbit tendon of Achilles was superfused with arterial blood in extracorporal circulation at a rate of 1.5 ml min^−1 and its weight was continuously monitored by an auxotonic Harvard transducer.
(§3) During the initial 20-30 min of superfusion the strip was gaining in weight by 80-120 mg because of deposition of platelet-rich thrombi and then in control conditions stayed unchanged during next 3-5 hrs. Thrombolytic response was detected by a fall in weight of a thrombi. Arterial blood pressure was also monitored, so this model enabled the analysis of thrombolytic and hypotensive action of a compound (FIG. 1).

platelets = assay: Collagen-induced aggregation in platelet-rich plasma in vitro; assay type: cell-based; settings: for effect on collagen-induced aggregation of platelets (FIG. 9): FIG. 9, (1 mg/ml)
[2] = Arterial blood pressure monitoring (hypotensive action); assay type: in vivo, Wistar rats
Description: as §2, §3

TXB2 = assay: Assay of TXB2 in arterial blood plasma (enzyme immunoassay); assay type: in vivo, Wistar rats; settings: 30 mg/kg i.v.
Description: as §1

PGE2 = assay: Assay of PGE2 in arterial blood plasma (enzyme immunoassay); assay type: in vivo, Wistar rats; settings: 30 mg/kg i.v.
Description: as §1

[3] = Anti-atherogenic effect in dyslipidemic patients (plasma TC, TG, HDL); assay type: in vivo; settings: 30 mg orally three times a day
Description: The anti-atherogenic effect of MNA^+ was investigated in 15 dyslipidemic patients. The enrollment criteria were: high level of TG (≧250 mg/dl) and low level of HDL (≦35 mg/dl for male, ≦45 mg/dl for female). The mean age of the patients was 61.4 (range 45-81 years). The patients were treated with MNA^+ for 2 weeks. The MNA^+ was administered orally, three times a day, one capsule (30 mg MNA^+) after meal. The plasma levels of TC, TG, HDL were measured at baseline and after 2 weeks of therapy. The level of LDL was measured in those cases, where it was possible (due to high TG level).

Compound: c1ccc2c(c1)[I+]c1ccccc1-2 [DPI, reference compound]
- effect on latex-induced activation of neutrophils (FIG. 10) (neutrophils): abrogated

Compound: NC(=O)c1cccnc1 [nicotinamide]
- change of 6-keto-PGF1α level / release of PGI2 (in words) ([1]; 30 mg/kg i.v.): did not increase
- thrombolytic response (in words) (platelet-rich thrombi; 30 mg/kg i.v.): Lack of thrombolytic response; also recorded: failed to induce a significant thrombolytic response
- thrombolytic response (platelet-rich thrombi; 30 mg/kg i.v.): 9±0.6%
- thrombolytic response (in words) (platelet-rich thrombi; 30 mg/kg i.v., listed as Nicotinamide): did not display a significant thrombolytic activity

Compound: C[n+]1cccc(C(=O)NCO)c1 [MNAF^+, 1-methyl-N′-(hydroxymethyl)nicotinamide]
- thrombolytic response (in words) (platelet-rich thrombi; 30 mg/kg i.v.): comparable to that induced by 30 mg/kg of MNA^+

Compound: COc1cc(C(C)=O)ccc1O [apocynin, reference compound]
- effect on latex-induced activation of neutrophils (FIG. 10) (neutrophils): abrogated

Compound: C[n+]1cccc(C(=O)[O-])c1 [trigonelline]
- thrombolytic response (in words) (platelet-rich thrombi; 30 mg/kg i.v.): Lack of thrombolytic response; also recorded: failed to induce a significant thrombolytic response; also recorded: did not display a significant thrombolytic activity
- thrombolytic response (platelet-rich thrombi; 30 mg/kg i.v.): did not produce any thrombolytic response

Compound: O=C(O)c1cccnc1 [nicotinic acid]
- change of 6-keto-PGF1α level / release of PGI2 (in words) ([1]; 30 mg/kg i.v.): did not increase
- thrombolytic response (in words) (platelet-rich thrombi; 30 mg/kg i.v.): Lack of thrombolytic response; also recorded: failed to induce a significant thrombolytic response; also recorded: did not display a significant thrombolytic activity
- thrombolytic response (platelet-rich thrombi; 30 mg/kg i.v.): 5±0.9%

Compound: Cn1cc(C(N)=O)ccc1=O [2-PYR, 1-methyl-2-pyridone-5-carboxyamide]
- duration of thrombolytic response (transient) (platelet-rich thrombi; 30 mg/kg i.v.): < 15 min
- thrombolytic response (in words) (platelet-rich thrombi; 30 mg/kg i.v.): Lack of thrombolytic response; also recorded: failed to induce a significant thrombolytic response; also recorded: did not display a significant thrombolytic activity
- thrombolytic response (platelet-rich thrombi; 30 mg/kg i.v.): < 10%

Compound: CC(=O)Oc1ccccc1C(=O)O [aspirin, reference compound]
- effect on collagen-induced aggregation of platelets (FIG. 9) (platelets): abrogated

Compound: C[n+]1cccc(C(N)=O)c1 [MNA^+, 1-methylnicotinamide]
- fall in arterial blood pressure ([2]; 30 mg/kg i.v., during thrombolysis): not associated with a fall in arterial blood pressure
- hypotension ([2]; 30-300 mg/kg): did not cause hypotension
- inhibition of latex-induced activation of neutrophils (neutrophils; 1 mM): did not inhibit
- effect on latex-induced activation of neutrophils (FIG. 10) (neutrophils): Lack of effect; also recorded: did not inhibit
- change of 6-keto-PGF1α level / release of PGI2 (in words) ([1]; 30 mg/kg i.v.): concomitant increase in level of 6-keto-PGF1α
- level of 6-keto-PGF1α in arterial plasma ([1]; 30 mg/kg i.v., 15 minutes after injection, before injection 104±7 pg/ml): 460 ± 58 pg/mL
- plateau level of 6-keto-PGF1α in arterial plasma ([1]; 30 mg/kg i.v., for at least one hour): around 400 pg/ml
- release of 6-keto-PGF1α in the presence of indomethacin ([1]; indomethacin 5 mg/kg): abrogated
- thrombolytic response (platelet-rich thrombi; 30 mg/kg i.v.): 42±4%
- duration of thrombolytic response (platelet-rich thrombi; 30 mg/kg i.v., response remained at approximately the same level over the observation period): 2 to 3 h
- dose dependence of thrombolysis (platelet-rich thrombi; 3-30 mg/kg i.v.): concentration-dependent thrombolysis
- dose of maximum thrombolytic response (platelet-rich thrombi; i.v., 3-30 mg/kg tested): 30 mg/kg
- thrombolytic response in the presence of indomethacin (platelet-rich thrombi; indomethacin 5 mg/kg): abrogated
- change of TXB2 level in arterial plasma (TXB2): neither TXB2 nor PGE2 levels changed significantly
- effect on collagen-induced aggregation of platelets (FIG. 9) (platelets): Lack of effect; also recorded: did not inhibit
- effect on collagen-induced aggregation in platelet-rich plasma (platelets; in vitro, up to concentration of 10 mM): not affected
- change of PGE2 level in arterial plasma (PGE2): neither TXB2 nor PGE2 levels changed significantly
- change of TC level, baseline to 2 weeks [3]: −15.7%
- change of TG level, baseline to 2 weeks [3]: −47.1%
- increase of HDL level, baseline to 2 weeks [3]: 36.2%
- TC plasma level after 2 weeks ([3]; 15 dyslipidemic patients, baseline 267.0 mg/dl): 225.1 mg/dL
- HDL plasma level after 2 weeks ([3]; baseline 39.2 mg/dl): 53.4 mg/dL
- TG plasma level after 2 weeks ([3]; baseline 472.6 mg/dl): 249.9 mg/dL
- TG/HDL ratio after 2 weeks ([3]; baseline 13.9): 5.8

Compound: 1-Methyl-3-acetylpyridinium salt [MAP^+]
- change of 6-keto-PGF1α level / release of PGI2 (in words) ([1]; 30 mg/kg i.v.): associated with the release of PGI2
- thrombolytic response (in words) (platelet-rich thrombi; 30 mg/kg i.v.): comparable to that induced by 30 mg/kg of MNA^+
